The source of these data is PMC12764492, “Therapeutic 6-thio-deoxyguanosine inhibits telomere elongation in cancer cells by inducing a non-productive stalled telomerase complex” (Nature Communications, 2025).

For the experiment, the target named is T1, DNA polymerase δ (Pol δ) holoenzyme (Homo sapiens, UniProt P28340).
T1 construct: gene POLD1; recombinant human Pol δ heterotetramer; with other Pol δ subunits (heterotetramer); PCNA
Description: primer extension by reconstituted Pol δ holoenzyme with 6-thio-dGTP ([…]) replacing dGTP; inserted, not significantly inhibitory. The class given is biochemical.

T1 sequence (P28340 whole entry): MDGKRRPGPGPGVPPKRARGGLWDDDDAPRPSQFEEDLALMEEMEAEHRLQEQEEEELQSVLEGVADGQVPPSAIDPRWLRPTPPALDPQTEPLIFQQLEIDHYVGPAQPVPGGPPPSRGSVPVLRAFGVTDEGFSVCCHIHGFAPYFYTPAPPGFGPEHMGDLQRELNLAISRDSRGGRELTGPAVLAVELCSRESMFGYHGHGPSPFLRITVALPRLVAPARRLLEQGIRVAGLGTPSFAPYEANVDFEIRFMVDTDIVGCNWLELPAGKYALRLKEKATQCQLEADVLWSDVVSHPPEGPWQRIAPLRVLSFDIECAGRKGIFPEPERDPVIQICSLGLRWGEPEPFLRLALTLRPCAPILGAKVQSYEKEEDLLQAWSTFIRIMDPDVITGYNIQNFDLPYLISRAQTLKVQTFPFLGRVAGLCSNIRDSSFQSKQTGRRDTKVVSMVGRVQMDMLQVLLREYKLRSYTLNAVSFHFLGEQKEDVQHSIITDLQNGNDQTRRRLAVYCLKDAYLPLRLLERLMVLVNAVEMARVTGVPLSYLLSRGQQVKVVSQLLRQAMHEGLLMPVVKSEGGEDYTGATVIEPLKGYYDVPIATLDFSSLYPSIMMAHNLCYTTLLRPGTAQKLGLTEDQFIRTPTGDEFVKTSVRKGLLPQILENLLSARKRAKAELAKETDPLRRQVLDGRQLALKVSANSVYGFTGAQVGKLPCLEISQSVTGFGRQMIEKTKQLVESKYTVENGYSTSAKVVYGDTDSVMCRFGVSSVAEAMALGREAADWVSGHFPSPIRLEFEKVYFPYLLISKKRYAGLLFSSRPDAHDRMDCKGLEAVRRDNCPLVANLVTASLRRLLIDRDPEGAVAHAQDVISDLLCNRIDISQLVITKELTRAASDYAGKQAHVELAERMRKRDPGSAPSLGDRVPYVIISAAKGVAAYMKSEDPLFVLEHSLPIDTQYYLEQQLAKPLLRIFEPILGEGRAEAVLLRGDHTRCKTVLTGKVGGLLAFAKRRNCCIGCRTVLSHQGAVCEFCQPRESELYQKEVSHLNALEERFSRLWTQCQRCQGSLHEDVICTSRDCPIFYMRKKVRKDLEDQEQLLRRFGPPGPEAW
T1 sequence (P49005 whole entry partner): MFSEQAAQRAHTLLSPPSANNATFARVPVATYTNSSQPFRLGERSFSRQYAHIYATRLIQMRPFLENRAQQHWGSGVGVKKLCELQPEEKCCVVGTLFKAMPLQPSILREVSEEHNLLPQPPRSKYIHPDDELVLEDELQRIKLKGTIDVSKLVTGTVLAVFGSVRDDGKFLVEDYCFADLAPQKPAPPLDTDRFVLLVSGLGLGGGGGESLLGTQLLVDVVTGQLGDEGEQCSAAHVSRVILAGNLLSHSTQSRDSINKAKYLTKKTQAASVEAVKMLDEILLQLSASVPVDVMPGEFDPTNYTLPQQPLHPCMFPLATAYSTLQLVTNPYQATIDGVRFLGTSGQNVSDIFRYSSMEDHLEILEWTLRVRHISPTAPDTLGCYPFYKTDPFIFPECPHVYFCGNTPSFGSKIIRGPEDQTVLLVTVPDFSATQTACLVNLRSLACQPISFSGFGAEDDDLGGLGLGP
T1 sequence (Q15054 2-466 partner): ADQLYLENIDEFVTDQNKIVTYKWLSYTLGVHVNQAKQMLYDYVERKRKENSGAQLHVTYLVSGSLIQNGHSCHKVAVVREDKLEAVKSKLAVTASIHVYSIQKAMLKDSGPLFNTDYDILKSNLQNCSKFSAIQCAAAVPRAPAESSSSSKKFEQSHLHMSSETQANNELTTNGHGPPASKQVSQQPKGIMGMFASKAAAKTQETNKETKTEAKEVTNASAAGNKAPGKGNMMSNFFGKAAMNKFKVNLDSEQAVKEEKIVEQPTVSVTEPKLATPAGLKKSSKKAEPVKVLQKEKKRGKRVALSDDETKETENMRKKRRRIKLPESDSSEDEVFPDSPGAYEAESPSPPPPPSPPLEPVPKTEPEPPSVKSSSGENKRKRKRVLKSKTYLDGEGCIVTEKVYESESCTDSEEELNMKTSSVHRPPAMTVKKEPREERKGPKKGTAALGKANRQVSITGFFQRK
T1 sequence (Q9HCU8 whole entry partner): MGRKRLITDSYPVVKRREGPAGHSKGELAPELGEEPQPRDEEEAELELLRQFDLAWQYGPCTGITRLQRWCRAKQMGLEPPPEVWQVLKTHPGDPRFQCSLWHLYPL
T1 sequence (P12004 whole entry partner): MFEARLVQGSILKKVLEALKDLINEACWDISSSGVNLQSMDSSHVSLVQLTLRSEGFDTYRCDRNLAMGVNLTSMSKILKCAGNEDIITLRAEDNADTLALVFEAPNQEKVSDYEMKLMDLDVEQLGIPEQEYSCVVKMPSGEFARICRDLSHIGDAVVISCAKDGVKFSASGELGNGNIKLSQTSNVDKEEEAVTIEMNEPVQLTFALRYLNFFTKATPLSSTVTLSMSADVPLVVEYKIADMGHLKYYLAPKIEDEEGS

For `Nc1nc2c(ncn2[C@H]2C[C@H](O)[C@@H](COP(=O)(O)OP(=O)(O)OP(=O)(O)O)O2)c(=S)[nH]1` [6-thio-dGTP], the “primer extension by reconstituted Pol δ holoenzyme with 6-thio-dGTP (9.7 μM) rep” value is on record as “The substitution of 6-thio-dGTP for dGTP did not significantly alter primer extension”.
